Several values for one entry are separate records, joined by “and”; a condition that tells them apart may be missing. Equal values may be shown once.
What was measured:
Fu5AH rat hepatoma cells = test: Inhibition of cholesterol ester accumulation in Fu5AH cells; format: cell-based; design: Visual (in comparison to results with compound of Example 2a) / % Inhibition of cholesterol ester accumulation: unit of the concentration uncertain; conditions: for inhibition at 10 µg/mL: Rattus norvegicus
Description: For testing a 75 cm^2 flask with a near confluent cell growth is selected. The cells are removed from the flask surface by mild enzymatic treatment with pronase. After centrifugation and decanting the enzyme solution, the cell pellet is resuspended in an appropriate volume of media for seeding the desired number of 60 mm tissue culture dishes. Five (5) ml of the diluted cell suspension are pipetted into each dish. After seeding, the dishes are labelled with the cell type, date and flask number of origin and incubated at 37° C. in approximately 5% CO2 atmosphere in a high humidity incubator. When the cultures are confluent, the actual drug testing is begun. Test compounds are routinely solubilized in 100% ethanol. An equivalent amount of ethanol is added to control groups as well. The tissue culture dishes are randomly divided into groups. To one group, hyperlipemic rabbit serum (HRS) is added at 5% by volume (control). […] The dishes are returned to the incubator for an additional 24 hours. All operations through to the final incubation are performed using sterile technique in a laminar flow hood. After the incubation period, the dishes are microscopically observed with the Zeiss Axiomat with phase contrast optics and the conditions of the cultures are recorded; especially in regard to the size, number and configuration of cytoplasmic inclusions and to cellular morphology. The media is removed from the cultures and 0.9% sodium chloride solution is added. The cells are removed from the flasks with the aid of a rubber policeman and transferred to a conical graduated centrifuge tube. The cells are washed three times by suspending in an isotonic salt solution, centrifuging at 800× g for 10 minutes and aspirating the supernatant fluid.
(§1) An appropriate volume of isopropyl alcohol (about 1 ml/mg protein) is then added to the cell pellet and the sample sonicated with a micro probe (140×3 mm) for 10 seconds with a "LO" setting of 50 on a Bronwell Biosonik IV. After centrifugation for 15 minutes at 800× g, the clear supernatant is decanted and an aliquot taken for cholesterol analysis.
An aliquot of 0.4 ml of free reagent (Reagent A, Table 1 below) is added to a 10×75 mm disposable glass test tube to which 20 μl of the isopropyl alcoholic solution is added and mixed. After standing at room temperature for approximately 5 minutes, 0.8 ml of 0.5 N sodium hydroxide (Reagent C, Table 1) is added and mixed. The fluorescence is measured with an Aminco-Bowman spectrophotofluorometer with an excitation wavelength of 325 nm and emission wavelength of 415 nm. A 1 cm light path cuvette is used with a xenon lamp, an IP28 photomultiplier tube and 2 mm slits.
Total cholesterol: The same procedure described above for free cholesterol is followed for total cholesterol except that the total reagent (Reagent B, Table 1) is used instead of the free reagent and the samples are incubated for 20 minutes at 37° C. before the addition of the 0.5 N sodium hydroxide solution (Reagent C, Table 1).
The amount of cholesterol ester is found by subtracting the amount of free cholesterol from the total cholesterol content of the cells determined by the assay.

[1] = tested on: serum cholesterol and cholesterol ester levels; test: Oral administration to rabbits with high cholesterol diet, serum cholesterol and arterial plaques; format: in vivo; conditions: oral 200 mg/kg per day for 9 weeks, compared to controls
[2] = tested on: monkey aortic smooth muscle cells; test: Cell culture cholesterol ester test, monkey aortic smooth muscle cells (Table 2); format: cell-based, Rhesus monkey; conditions: 5% HRS
Description: The compounds of formula I of this invention are useful as pharmaceutical agents in animals. In particular, the compounds of the formula I are useful in controlling the cholesterol ester content of mammalian arterial walls and are therefore particularly indicated for use as anti-atherosclerotic agents, ie. agents useful in the prophylactic treatment of atherosclerosis and in the controlling of atherosclerotic conditions due to cholesterol ester accumulation in the arterial walls. Such ability of the compounds of the formula I is indicated e.g., by known test procedures in which the total cholesterol ester content of cultured cells is shown to be reduced by a test compound, as compared to untreated cells, and carried out, for example, by the following procedures:
Rhesus monkey smooth muscle cells (from the arterial, eg aorta wall) obtained by the method of K. Fisher-Dzoga et al (Experimental and Molecular Pathology 18, 162-176 (1973)) are routinely grown in 75 cm^2 tissue culture flasks using Minimum Essential Medium (Eagle) supplemented with 10% fetal bovine serum. For testing a 75 cm^2 flask with a near confluent cell growth is selected. The cells are removed from the flask surface by mild enzymatic treatment with pronase. After centrifugation and decanting the enzyme solution, the cell pellet is resuspended in an appropriate volume of media for seeding the desired number of 60 mm tissue culture dishes. Five (5) ml of the diluted cell suspension are pipetted into each dish. After seeding, the dishes are labelled with the cell type, date and flask number of origin and incubated at 37° C. in approximately 5% CO2 atmosphere in a high humidity incubator. When the cultures are confluent, the actual drug testing is begun. Test compounds are routinely solubilized in 100% ethanol. An equivalent amount of ethanol is added to control groups as well. The tissue culture dishes are randomly divided into groups. To one group, hyperlipemic rabbit serum (HRS) is added at 5% by volume (control). To the remaining groups, 5% HRS and 1 mg per 100 ml of media of the test compound are added. The dishes are returned to the incubator for an additional 24 hours. All operations through to the final incubation are performed using sterile technique in a laminar flow hood. After the incubation period, the dishes are microscopically observed with the Zeiss Axiomat with phase contrast optics and the conditions of the cultures are recorded; especially in regard to the size, number and configuration of cytoplasmic inclusions and to cellular morphology. The media is removed from the cultures and 0.9% sodium chloride solution is added. The cells are removed from the flasks with the aid of a rubber policeman and transferred to a conical graduated centrifuge tube. The cells are washed three times by suspending in an isotonic salt solution, centrifuging at 800× g for 10 minutes and aspirating the supernatant fluid.
as §1
The residue is dissolved in 0.1 N sodium hydroxide and an aliquot taken for protein determination by the method of Lowry, et al. (J. Biol. Chem. 193, 265; 1951). […]

cholesterol absorption = test: Zilversmit test, cholesterol absorption in the cholesterol fed rabbit; format: in vivo, Male New Zealand rabbits; conditions: three days, n = 4
Experimental: The Zilversmit test is carried out as follows:
Cholesterol-1-2-^3 H and cholesterol-4-^14 C were obtained from New England Nuclear. They were purified by high pressure liquid chromatography (Beckman Model 332) using a reverse phase ultrasphere O.D.S. 25 cm×4.5 mm I.D. column with the following solvent system:
The flow rate was 1 ml/min. Detection was made at 206 nm using a Model 155-40 UV-Vis detector (Beckman). The radioactive cholesterol solution in benzene was evaporated to dryness, taken up in isopropyl alcohol and injected into the HPLC in five 20 μl aliguots. Cholesterol fractions were collected, pooled and evaporated to dryness. The purified fraction was rechromatographed under the same conditions to confirm purity.
The HPLC-purified cholesterol-1-2-^3 H was dissolved in corn oil (M.C.B.U.S.P.). The corn oil solution was added to 6.8% skim milk in a ratio of 1:4. This mixture was homogenized by sonicating with a Bronwell Biosonik IV sonicator using a microprobe at a "Lo" setting of 50 until a homogenous suspension was formed. […]
The radioactivity was determined by liquid scintillation counting in either a Packard 3320 Liquid Scintillation Spectrometer or a Beckman Model LS8000. […]
The combined efficiency of the oxidizer and liquid scintillation counter was determined for each isotope from standards of known specific activity. […]

[3] = Dose 10 as printed, Control = 0.17
[4] = Dose 10 (unit uncertain) as printed
[5] = 1 mg test compound per 100 ml of media, 24 hours, listed as A

## CCCCCCCC/C=C\CCCCCCCC(=O)NC(Cc1cn(C)c2ccccc12)C(=O)OCC (centres unmarked) [Example 3a, 2-(1-oxo-9-octadecenylamino)-3-(1-methylindolyl)-propanoic acid, ethyl ester]
Fu5AH rat hepatoma cells; [3]
  F/T: 0.52

## CCCCC/C=C\C/C=C\CCCCCCCC(=O)NC(Cc1c[nH]c2ccccc12)C(=O)OCC (stereo not drawn) [Example 1, α-[(1-Oxo-9,12-oxtadecadienylamino)]1H-Indole-3-Propanoic acid, Ethyl Ester(cis, cis isomer)]
Fu5AH rat hepatoma cells; [4]
  Visual (in comparison to results with compound of Example 2a): About same
Fu5AH rat hepatoma cells; Dose 10 (unit uncertain) as printed, Table 6
  % Inhibition of cholesterol ester accumulation: 59%
Fu5AH rat hepatoma cells; Table 6
  inhibition at 10 µg/mL: 69%

## CCCCCCCC/C=C\CCCCCCCC(=O)NC(Cc1c[nH]c2ccccc12)C(=O)OCC (single isomer, unassigned) [Example 2a, α-[(1-oxo-9-octadecenylamino)]-1H-indole-3-propanoic acid, ethyl ester (cis isomer)]
[1]
  arterial wall plaques: lessened formation or absence of arterial wall plaques
  cholesterol and cholesterol ester serum levels: reduction in cholesterol and cholesterol ester serum levels
[2]; [5]
  Cholesterol Free: 50.4 μg/mg cell protein and 54.4 μg/mg cell protein
  Cholesterol Total: 57.4 μg/mg cell protein and 60.3 μg/mg cell protein
[2]; 1 mg test compound per 100 ml of media, 24 hours, single culture, controls 23.1 and 21.4, listed as A
  Cholesterol Ester Amount: 7.0 μg/mg cell protein and 5.9 μg/mg cell protein
[2]; decrease, significant at P less than 0.01, 1 mg per 100 ml of media
  Cholesterol Ester Percent from control: 71.0%
[2]; mean of two cultures, 1 mg per 100 ml of media, control mean 22.3
  Cholesterol Ester mean: 6.5 μg/mg cell protein
Fu5AH rat hepatoma cells; 10 μg/ml, 5% HRS, Mean ± SEM, p < .01 vs Hyperlipemic Control 40.7 ± 0.6
  Cholesterol Free: 76.8 ± 6.5 μg/mg Cell Protein
Fu5AH rat hepatoma cells; 10 μg/ml, 5% HRS, Mean ± SEM, p < .01 vs Hyperlipemic Control 152.5 ± 2.3
  Cholesterol Ester: 40.6 ± 1.3 μg/mg Cell Protein
Fu5AH rat hepatoma cells; 10 μg/ml, 5% HRS, Mean ± SEM, p < .01 vs Hyperlipemic Control 193.0 ± 2.9
  Cholesterol Total: 117.4 ± 5.2 μg/mg Cell Protein
Fu5AH rat hepatoma cells; 10 μg/ml, Table 5
  % inh (cholesterol ester accumulation): 73%
Fu5AH rat hepatoma cells; Fu5AH cells
  inhibition of cholesterol accumulation by cells: marked inhibition of cholesterol accumulation
Fu5AH rat hepatoma cells; calculated from Table 5 (10 μg/ml), hyperlipemic control = 0.21
  F/T: 0.65
Cholesterol absorption; 200 mg/kg by gavage, ± S.E.M., control 43.0 ± 2.03
  Percent Cholesterol Absorption: 20.0 ± 1.43%
Cholesterol absorption; 500 mg/kg by gavage, Mean ± S.E.M., control 41.0 ± 3.3
  Percent Cholesterol Absorption: 11.2 ± 1.1%

## CCCCCCCC/C=C\CCCCCCCC(=O)NC(Cc1c[nH]c2ccc(F)cc12)C(=O)OCC (centres unmarked) [Example 3e, 2-(1-oxo-9-octadecenylamino)-3-(1H-5 fluoroindolyl)-propanoic acid, ethyl ester]
Fu5AH rat hepatoma cells; [4]
  Visual (in comparison to results with compound of Example 2a): About same
Fu5AH rat hepatoma cells; Table 6
  inhibition at 10 µg/mL: 39%

## CCCCC/C=C\C/C=C\CCCCCCCC(=O)NC(Cc1c[nH]c2ccccc12)C(=O)OCCCCCCCC (centres unmarked) [Example 4c]
Fu5AH rat hepatoma cells; Dose 5 (unit uncertain) as printed
  Visual (in comparison to results with compound of Example 2a): Weaker
Fu5AH rat hepatoma cells; Dose 5 as printed, Control = 0.19
  F/T: 0.22

## CCCCC/C=C\C/C=C\CCCCCCCC(=O)NC(Cc1c[nH]c2ccccc12)C(=O)OCc1ccccc1 (centres unmarked) [Example 4d]
Fu5AH rat hepatoma cells; [4]
  Visual (in comparison to results with compound of Example 2a): About same

## CCCCCCCC/C=C\CCCCCCCC(=O)NC(Cc1c[nH]c2ccc(OC)cc12)C(=O)OCC (centres unmarked) [Example 3b, 2-(1-oxo-9-octadecenylamino)-3-(1H-5-methoxyindolyl)-propanoic acid, ethyl ester]
Fu5AH rat hepatoma cells; [4]
  Visual (in comparison to results with compound of Example 2a): About same
Fu5AH rat hepatoma cells; [3]
  F/T: 0.45
